Reference: patent US6767741B1, “Metal binding compounds and their use in cell culture medium compositions” (Invitrogen Corporation, priority 1999, dated 2004)

Legend:
Assay type in all cases: cell-based
293 cells = test: Growth of 293 cells in transferrin-free 293 SFM with metal binding compounds; settings: third passage
Procedure: Semi-confluent adherent cultures of 293 Cells (ATCC, CRL 1573) are readily adapted to suspension culture. The cells are first detached with a solution of Trypsin-EDTA (0.05% Trypsin, 0.53 mM Na4EDTA), and then resuspended in conventional medium supplemented with 10% FBS to inhibit the trypsin. The resuspended cells are centrifuged at 200×g for five minutes. The cell pellet is resuspended in 293 SFM (available from Life Technologies, Rockville, Md.) the formulation of which is described in WO 98/08934 which is specifically incorporated herein by reference. Alternatively, the cells may be detached with Versene (Na4EDTA, 0.53 mM) and resuspended in 293 SFM.
The initial seeding density of the 293 cells after conversion to suspension culture is 1×10^6 cells/mL. The cells are shaken on a rotary shaker at 150 rpm in a 37° C. incubator equilibrated with 8% CO2-92% air. When the cells reach a density of 1.5×10^6 cells/mL they are diluted with 293 SFM to a density of 3.0×10^5 cells/mL. Because 293 cells have a tendency to aggregate, the cells may be vortexed vigorously for approximately 45 seconds to obtain a predominantly single cell suspension at the time of passaging and counting. After several passages in suspension culture, the maximum achievable density may be determined.
The ability of metal binding compounds to support cellular growth was evaluated using 293 cells maintained in 293 SFM (Life Technologies, Rockville, Md.) without transferrin or metal binding compound. Stock cultures containing 5 μg/mL human holo-transferrin were prepared in 293 SFM. For metal binding compound evaluation, 293 cells were established in 125 mL shaker flasks at an initial viable seeding density of 2×10^5 cells/mL in a final volume of 20 mL. All cultures were maintained at 37° C. in humidified air containing 8% CO2. To eliminate transferrin carry-over effects, cells were subcultured at 4 day intervals for a total of three passages. At each subculturing, cells were seeded at a density of 2×10^5 cells/mL. Positive control cultures contained 5 μg/mL human holo-transferrin while negative control cultures were established in the absence of either transferrin or metal binding compound. Metal binding compound stocks were prepared at 0.1M-0.2M in ddH2O and solubilized when necessary using 5N NaOH or HCl. Iron complexes were established using 0.2M metal binding compound and iron stocks mixed 1:1 (v/v) and incubated for 5-10 minutes at 22° C. All solutions containing metal binding compounds were filter sterilized using a 0.22 μm Millex-GV filter prior to addition to transferrin and serum-free media.
In most cases, metal binding compounds were evaluated either alone or in combination with ferric chloride or ferrous sulfate at 25 μM, 50 μM and 100 μM. When used in combination, the metal binding compounds were used in equimolar concentration with iron ions. Values in the table represent the mean percentage of control growth for duplicate cultures determined at the third passage.
(§1) When added to the medium formulation un-complexed, the metal binding compound is listed alone, when added as a complex with a transition metal, the source of the transition metal is listed with the metal binding compound.

Sp2/0 cells = test: Growth of Sp2/0 cells in transferrin-free CD Hybridoma medium with metal binding compounds; settings: third passage
Procedure: The ability of iron metal binding compounds to support cellular growth in the absence of transferrin was evaluated using Sp2/0 cells maintained in CD Hybridoma medium (Life Technologies, Rockville, Md.). Stock cultures containing 5 μg/mL human holo-transferrin were prepared in CD Hybridoma medium. For metal binding compound evaluation, Sp2/0 cells were established at an initial viable cell density of 0.5×10^5 cells/mL in stationary culture using 75 cm^2 tissue culture flasks in a final volume of 20 mL. All cultures were maintained at 37° C. in humidified air containing 8% CO2. To eliminate transferrin carry-over effects, cells were subcultured at the same seeding density at 4 day intervals for a total of three passages. Positive control cultures contained 5 μg/mL human holotransferrin while negative control cultures were established in the absence of either transferrin or metal binding compound. Metal binding compound stocks were prepared at 0.1M-0.2M in ddH2O and solubilized when necessary using 5N NaOH or HCl. Iron complexes were established using 0.2M metal binding compound and iron stocks mixed 1:1 (v/v) and incubated for 5-10 minutes at 22° C. All solutions containing metal binding compounds were filter sterilized using a 0.22 μm Millex-GV filter prior to addition to transferrin and serum-free media.
(§2) In most cases, metal binding compounds were evaluated either alone or in combination with ferric chloride or ferrous sulfate at 25 μM, 50 μM and 100 μM. Values in the table represent the mean percentage of control growth for duplicate cultures determined at the third passage.
as §1

CHO cells = test: Growth of CHO cells in transferrin-free CD CHO medium with metal binding compounds; settings: third passage, control = 5 μg/mL human holo-transferrin, duplicate cultures
Procedure: The ability of metal binding compounds to support cellular growth in the absence of transferrin was evaluated using CHO cells maintained in CD CHO medium (Life Technologies, Rockville, Md., the formulation of which is described in WO 98/08934). Stock cultures containing 5 μg/mL human holo-transferrin were prepared in CD CHO medium. For metal binding compound evaluation, CHO cells were established in 125 mL shaker flasks at an initial viable seeding density of 1×10^5 cells/mL in a final volume of 20 mL. All cultures were maintained at 37° C. in humidified air containing 8% CO2. To eliminate transferrin carry-over effects, cells were subcultured at 4 day intervals for a total of three passages. Positive control cultures contained 5 μg/mL human holo-transferrin while negative control cultures were established in the absence of either transferrin or metal binding compound. Metal binding compound stocks were prepared at 0.1M-0.2M in ddH2O and solubilized when necessary using 5N NaOH or HCl. Iron complexes were established using 0.2M metal binding compound and iron stocks mixed 1:1 (v/v) and incubated for 5-10 minutes at 22° C. All solutions containing metal binding compounds were filter sterilized using a 0.22 μm Millex-GV filter prior to addition to transferrin and serum-free media.
as §2
as §1, with “The ability of various metal binding compounds to substitute for transferrin in the culture of CHO cells was determined. When” for “When”

[1] = 25 μM, control = 5 μg/mL human holo-transferrin, duplicate cultures
[2] = 50 μM, control = 5 μg/mL human holo-transferrin, duplicate cultures
[3] = 100 μM, control = 5 μg/mL human holo-transferrin, duplicate cultures

O=C(O)CN(CCN(CC(=O)O)CC(=O)O)CCN(CC(=O)O)CC(=O)O.[Cl][Fe]([Cl])[Cl] [Diethylenetriamine Penta-Acetic Acid · Ferric Chloride]
mean percentage of control growth (293 cells; [1]): 79% | mean percentage of control growth (293 cells; [2]): 96% | mean percentage of control growth (293 cells; [3]): 102%

O=S(=O)([O-])[O-].OC[C@@H](O)[C@@H](O)[C@H](O)[C@@H](O)CO.[Fe+2] [Sorbitol · Ferrous Sulfate]
mean percentage of control growth (293 cells; [1]): 58% | mean percentage of control growth (293 cells; [2]): 69% | mean percentage of control growth (293 cells; [3]): 83%

O=S(=O)([O-])[O-].[Fe+2].[O-][n+]1cccc(O)c1 [3-Hydroxypyridine-N-Oxide · Ferrous Sulfate]
mean percentage of control growth (293 cells; [1]): 104% | mean percentage of control growth (293 cells; [2]): 58% | mean percentage of control growth (293 cells; [3]): 0%

[O-][n+]1cccc(O)c1 [3-Hydroxypyridine-N-Oxide]
mean percentage of control growth (293 cells; [1]): 4% | mean percentage of control growth (293 cells; [2]): 4% | mean percentage of control growth (293 cells; [3]): 4%

[Cl][Fe]([Cl])[Cl].c1ccc(-c2ccccn2)nc1 [2,2-Dipyridyl · Ferric Chloride]
mean percentage of control growth (293 cells; [1]): 51% | mean percentage of control growth (293 cells; [2]): 96% | mean percentage of control growth (293 cells; [3]): 0%

Cc1occc(=O)c1O.[Cl][Fe]([Cl])[Cl] [3-Hydroxy-2-Methyl-4-Pyrone · Ferric Chloride]
mean percentage of control growth (Sp2/0 cells; [1]): 60% | mean percentage of control growth (Sp2/0 cells; [2]): 71% | mean percentage of control growth (Sp2/0 cells; [3]): 75%

OC1C(O)C(O)C(O)C(O)C1O.[Cl][Fe]([Cl])[Cl] (stereo not drawn) [Myo-Inositol · Ferric Chloride]
mean percentage of control growth (293 cells; [1]): 79% | mean percentage of control growth (293 cells; [2]): 87% | mean percentage of control growth (293 cells; [3]): 85%

O=C(O)c1cccnc1O.[Cl][Fe]([Cl])[Cl] [2-Hydroxynicotinic Acid · Ferric Chloride]
mean percentage of control growth (293 cells; 100 μM (row note: 293 tested at 100, 150, 200 μM; first column)): 0% | mean percentage of control growth (293 cells; 150 μM (row note: 293 tested at 100, 150, 200 μM; second column)): 0% | mean percentage of control growth (293 cells; 200 μM (row note: 293 tested at 100, 150, 200 μM; third column)): 99% | mean percentage of control growth (Sp2/0 cells; [1]): 64% | mean percentage of control growth (Sp2/0 cells; [2]): 82% | mean percentage of control growth (Sp2/0 cells; [3]): 85%

NC(=O)CC(N)C(=O)O.[Cl][Fe]([Cl])[Cl] (stereo not drawn) [Asparagine · Ferric Chloride]
mean percentage of control growth (Sp2/0 cells; [1]): 36% | mean percentage of control growth (Sp2/0 cells; [2]): 51% | mean percentage of control growth (Sp2/0 cells; [3]): 54%

NC(Cn1ccc(=O)c(O)c1)C(=O)O.[Cl][Fe]([Cl])[Cl] (stereo not drawn) [Mimosine · Ferric Chloride]
mean percentage of control growth (293 cells; [1]): 64% | mean percentage of control growth (293 cells; [2]): 55% | mean percentage of control growth (293 cells; [3]): 80%

O=C(O)c1cccc(O)c1O.[Cl][Fe]([Cl])[Cl] [2,3-Dihydrobenzoic Acid · Ferric Chloride]
mean percentage of control growth (CHO cells; 25 μM): 71% | mean percentage of control growth (CHO cells; 50 μM): 0% | mean percentage of control growth (CHO cells; 100 μM): 0%

Cc1occc(=O)c1O [3-Hydroxy-2-Methyl-4-Pyrone (Maltol), 3-Hydroxy-2-Methyl-4-Pyrone]
mean percentage of control growth (293 cells; [1]): 0% | mean percentage of control growth (293 cells; [2]): 28% | mean percentage of control growth (293 cells; [3]): 81% | mean percentage of control growth (Sp2/0 cells; [1]): 0% | mean percentage of control growth (Sp2/0 cells; [2]): 0% | mean percentage of control growth (Sp2/0 cells; [3]): 0%

O=C(O)CN(CC(=O)O)CC(=O)O [Nitriloacetic Acid]
mean percentage of control growth (Sp2/0 cells; [1]): 0% | mean percentage of control growth (Sp2/0 cells; [2]): 0% | mean percentage of control growth (Sp2/0 cells; [3]): 0%

O=[N+]([O-])c1ncccc1O.[Cl][Fe]([Cl])[Cl] [3-Hydroxy-2-Nitropyridine · Ferric Chloride]
mean percentage of control growth (Sp2/0 cells; [1]): 52% | mean percentage of control growth (Sp2/0 cells; [2]): 62% | mean percentage of control growth (Sp2/0 cells; [3]): 72%

NCCCCC(N)C(=O)O.[Cl][Fe]([Cl])[Cl] (stereo not drawn) [Lysine · Ferric Chloride]
mean percentage of control growth (CHO cells; 25 μM): 51% | mean percentage of control growth (CHO cells; 50 μM): 79% | mean percentage of control growth (CHO cells; 100 μM): 98%

NCC(=O)O.[Cl][Fe]([Cl])[Cl] [Glycine · Ferric Chloride]
mean percentage of control growth (293 cells; [1]): 81% | mean percentage of control growth (293 cells; [2]): 71% | mean percentage of control growth (293 cells; [3]): 72% | mean percentage of control growth (Sp2/0 cells; [1]): 34% | mean percentage of control growth (Sp2/0 cells; [2]): 61% | mean percentage of control growth (Sp2/0 cells; [3]): 56%

O=C(O)c1ccccn1.O=S(=O)([O-])[O-].[Fe+2] [2-Pyridinecarboxylic Acid · Ferrous Sulfate]
mean percentage of control growth (293 cells; [1]): 67% | mean percentage of control growth (293 cells; [2]): 48% | mean percentage of control growth (293 cells; [3]): 0%

CC(=O)N[C@@H](CS)C(=O)O.[Cl][Fe]([Cl])[Cl] [N-Acetyl-Cysteine · Ferric Chloride]
mean percentage of control growth (293 cells; [1]): 88% | mean percentage of control growth (293 cells; [2]): 82% | mean percentage of control growth (293 cells; [3]): 52%

C1COCCN1.[Cl][Fe]([Cl])[Cl] [Morpholine · Ferric Chloride]
mean percentage of control growth (Sp2/0 cells; [1]): 54% | mean percentage of control growth (Sp2/0 cells; [2]): 64% | mean percentage of control growth (Sp2/0 cells; [3]): 81%

O=C(O)CN(CC(=O)O)CC(=O)O.O=S(=O)([O-])[O-].[Fe+2] [Nitriloacetic Acid · Ferrous Sulfate]
mean percentage of control growth (293 cells; [1]): 75% | mean percentage of control growth (293 cells; [2]): 95% | mean percentage of control growth (293 cells; [3]): 0%

NC(CCC(=O)O)C(=O)O.[Cl][Fe]([Cl])[Cl] (stereo not drawn) [Glutamic Acid · Ferric Chloride]
mean percentage of control growth (293 cells; [1]): 102% | mean percentage of control growth (293 cells; [2]): 68% | mean percentage of control growth (293 cells; [3]): 83%

CC(=O)NO.[Cl][Fe]([Cl])[Cl] [Acetohydroxamic Acid · Ferric Chloride]
mean percentage of control growth (293 cells; [1]): 83% | mean percentage of control growth (293 cells; [2]): 22% | mean percentage of control growth (293 cells; [3]): 0% | mean percentage of control growth (Sp2/0 cells; 5 μM, control = holo-transferrin): 40% | mean percentage of control growth (Sp2/0 cells; 10 μM, control = holo-transferrin): 48% | mean percentage of control growth (Sp2/0 cells; 20 μM, control = holo-transferrin): 47%
